One data set addresses T1, aminopeptidase M (AmM) (Homo sapiens, UniProt P15144).
T1 construct: incubated for 60 min with 50 μl of human plasma; from tissue; host or cells: human plasma from heparinized blood of healthy male volunteers
The data set is described as follows: In vitro metabolic stability against human plasma AmM. It is filed as in vitro ADME. As to conditions: male, human plasma as source of aminopeptidase M, pH 7.5, peptide 200 μM, 60 min incubation, mean ± SEM of 3, read-out: Peptide metabolism (%) Human plasma AmM. As to the method:
(§1) These assays were performed using three enzyme preparations: purified angiotensin converting enzyme (ACE; from rabbit lung), human plasma as a, source of aminopeptidase M (AmM) and human platelets as a source of aminopeptidase P (AmP).
Human plasma AmM was prepared as previously described (Gobeil et al., 1999, Hypertension, 33, 823–829). Blood (5 ml) was withdrawn from healthy normotensive male Caucasian volunteers and put into heparinized tube (200 U). Blood samples were centrifuged at 1500 rpm for 15 min in a refrigerated tabletop centrifuge. The peptide antagonists (200 μM) were placed in a PBS buffer (50 mM, pH 7.5, containing 300 mM NaCl) and incubated for 60 min with 50 μl of human plasma (total volume of the medium, 375 μl). Immersing samples into boiling water and then cooling them on ice stopped the hydrolysis reaction. Control experiments have shown that ≈70% of the kininase activity that is present in the human plasma is abolished by amastatin (1 μM) and that the incubation of Lys-[Leu^8]desArg^9BK with this enzymatic preparation led to the production of [Leu^8]desArg^9BK as detected by electrospray mass spectrometry.

In data set [1] the target is T2, angiotensin converting enzyme (ACE) (Oryctolagus cuniculus, UniProt P12822).
T2 construct: In Vitro Biochemical Stability Assays Against Purified Native Enzymes; purchased Sigma, St. Louis, Mo; host or cells: rabbit lung
T2 sequence (P12822 34-1310): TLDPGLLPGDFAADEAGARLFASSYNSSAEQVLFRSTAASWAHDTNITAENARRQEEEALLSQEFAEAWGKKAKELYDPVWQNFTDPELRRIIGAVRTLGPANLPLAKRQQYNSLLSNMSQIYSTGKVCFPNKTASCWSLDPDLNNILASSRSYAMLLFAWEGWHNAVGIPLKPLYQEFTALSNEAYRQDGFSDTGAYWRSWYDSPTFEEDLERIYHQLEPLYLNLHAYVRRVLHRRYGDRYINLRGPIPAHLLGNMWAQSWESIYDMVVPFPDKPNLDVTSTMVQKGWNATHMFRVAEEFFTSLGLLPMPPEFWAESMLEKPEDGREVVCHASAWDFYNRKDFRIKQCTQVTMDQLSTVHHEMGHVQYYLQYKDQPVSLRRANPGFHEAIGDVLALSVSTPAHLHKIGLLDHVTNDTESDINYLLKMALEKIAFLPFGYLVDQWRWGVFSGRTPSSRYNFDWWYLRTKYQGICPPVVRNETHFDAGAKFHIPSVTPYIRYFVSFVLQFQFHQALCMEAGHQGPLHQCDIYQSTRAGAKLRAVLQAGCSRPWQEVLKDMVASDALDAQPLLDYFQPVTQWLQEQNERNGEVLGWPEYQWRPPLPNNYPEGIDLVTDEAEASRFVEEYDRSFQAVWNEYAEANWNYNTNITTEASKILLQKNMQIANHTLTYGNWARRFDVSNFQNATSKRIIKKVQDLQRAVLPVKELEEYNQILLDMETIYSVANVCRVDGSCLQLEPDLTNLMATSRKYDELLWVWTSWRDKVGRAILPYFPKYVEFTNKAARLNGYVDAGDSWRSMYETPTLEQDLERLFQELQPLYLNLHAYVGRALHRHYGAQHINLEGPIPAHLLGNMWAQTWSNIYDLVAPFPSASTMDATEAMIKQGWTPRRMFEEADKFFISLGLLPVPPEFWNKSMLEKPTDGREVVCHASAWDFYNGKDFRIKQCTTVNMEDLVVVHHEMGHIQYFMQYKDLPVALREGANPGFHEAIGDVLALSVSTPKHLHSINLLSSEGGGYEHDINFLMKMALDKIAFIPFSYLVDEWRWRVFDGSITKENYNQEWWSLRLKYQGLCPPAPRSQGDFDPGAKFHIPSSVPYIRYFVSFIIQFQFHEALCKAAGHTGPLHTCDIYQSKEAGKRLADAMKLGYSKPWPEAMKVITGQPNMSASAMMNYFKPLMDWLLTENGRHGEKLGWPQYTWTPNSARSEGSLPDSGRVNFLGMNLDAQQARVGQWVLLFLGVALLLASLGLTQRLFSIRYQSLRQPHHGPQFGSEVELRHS
The data set is described as follows: In vitro metabolic stability against purified rabbit lung ACE. It is filed as in vitro ADME. The following applies: purified angiotensin converting enzyme from rabbit lung, pH 7.5, peptide 200 μM, 60 min at 37° C., mean ± SEM of 3, read-out: Peptide metabolism (%) Rabbit lung ACE. As to the method:
as §1
Purified ACE from rabbit lungs (Sigma, St. Louis, Mo.) was dissolved in PBS (50 mM, pH 7.5, containing 300 mM NaCl and 10 μM ZnCl2; the final concentration of ACE was 45 μg/ml). Each of the peptide antagonists (200 μM) was incubated for 60 min at 37° C. with ACE (8.5 μl) (total volume medium, 187.5 μl). The enzymatic reaction was then terminated by boiling.
The experimental protocol for the measurement of ACE activity has been described elsewhere (Drapeau et a). 1993, J Pharmacol Exp Ther 266, 192–198; Gobeil et al., 1996, supra).

The nature of data set [2]: Circulatory half-life in rat plasma after bolus i.v. administration. As to conditions: iv, 2.5 mg/kg body weight, direct i.v. jugular administration, anaesthetized rats. The format is in vivo. As for the experimental part:
Rats were anesthetized with the administration of ketamine/xylazine (100 mg/ml:0.1 ml/100 g, i.p.). For ex vivo analysis, blood was collected by cardiac puncture and placed into 5 ml vacutainer tubes containing 0.5 ml of 0.1 M Na2CO3 (for blood and plasma). For in vivo analysis, the drug was administered by i.v. bolus (2.5 mg/kg body weight) in the jugular vein of anesthetized rats and blood was collected as described above after 2, 5, 15, 30, 60, 120, 180 and 240 min.
Quantitative analysis of the extracted compound and standard controls was carried out using an Agilent reverse-phase HPLC (model 1100) coupled to a 4.6×150 mm Zorbax 300SB-C18 column (5 μm particle size) and equipped with a diode array detector. The peptides were eluted at a flow rate of 0.7 ml/min. with a linear gradient ranging from 5 to 65% of acetonitrile/TFA 0.05%/water over 32 min. at 25° C. The elution positions and quantification of compounds were determined by following the absorbance at 226 nm.
Concentrations of the peak's products were estimated using a computer software program (Chemstation for LC 3D, Agilent) that controlled all the chromatography operations.

Square brackets hold non-standard residues; d marks the D form. Peptide text beside a SMILES is read from it. Oic = O=C(O)[C@@H]1C[C@@H]2CCCC[C@@H]2N1; d2Nal = N[C@H](Cc1ccc2ccccc2c1)C(=O)O; αMeF = C[C@](N)(Cc1ccccc1)C(=O)O; Orn = NCCC[C@H](N)C(=O)O

In general, half-life refers to the time in which the quantity being followed falls by half. The low end stands for rapid decline, the high end for slow decline.

T1 sequence (P15144 whole entry): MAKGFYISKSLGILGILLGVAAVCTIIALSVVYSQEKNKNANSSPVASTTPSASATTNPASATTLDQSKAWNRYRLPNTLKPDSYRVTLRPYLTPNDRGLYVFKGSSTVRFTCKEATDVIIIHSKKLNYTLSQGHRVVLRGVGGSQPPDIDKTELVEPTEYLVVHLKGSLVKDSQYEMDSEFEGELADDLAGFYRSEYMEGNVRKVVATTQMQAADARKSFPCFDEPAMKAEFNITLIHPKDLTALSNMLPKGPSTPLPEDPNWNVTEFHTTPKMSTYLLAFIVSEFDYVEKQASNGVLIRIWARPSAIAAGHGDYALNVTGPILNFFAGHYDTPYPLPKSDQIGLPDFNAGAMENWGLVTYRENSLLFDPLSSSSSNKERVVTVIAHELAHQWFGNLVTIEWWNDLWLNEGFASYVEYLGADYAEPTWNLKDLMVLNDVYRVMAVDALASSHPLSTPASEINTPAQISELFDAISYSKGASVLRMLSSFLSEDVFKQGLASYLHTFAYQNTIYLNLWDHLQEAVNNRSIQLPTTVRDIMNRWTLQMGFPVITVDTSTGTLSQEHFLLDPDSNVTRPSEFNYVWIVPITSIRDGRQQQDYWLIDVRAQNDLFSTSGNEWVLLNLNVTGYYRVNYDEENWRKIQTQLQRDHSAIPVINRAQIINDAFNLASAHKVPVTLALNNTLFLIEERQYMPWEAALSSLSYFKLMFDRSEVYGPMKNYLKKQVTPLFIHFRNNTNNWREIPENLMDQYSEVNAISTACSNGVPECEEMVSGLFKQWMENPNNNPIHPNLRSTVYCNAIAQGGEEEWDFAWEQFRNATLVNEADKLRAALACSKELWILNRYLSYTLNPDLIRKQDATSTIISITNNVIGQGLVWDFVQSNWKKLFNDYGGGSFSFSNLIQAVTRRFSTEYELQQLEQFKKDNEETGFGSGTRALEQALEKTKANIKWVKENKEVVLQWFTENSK

Consider `CC[C@H](C)[C@H](NC(=O)[C@@H](Cc1ccc2ccccc2c1)NC(=O)[C@H](CO)NC(=O)[C@](C)(Cc1ccccc1)NC(=O)CNC(=O)[C@@H]1CCCN1C(=O)[C@@H]1C[C@@H]2CCCC[C@@H]2N1C(=O)[C@H](CCCNC(=N)N)NC(=O)[C@H](CCCCN)NC(C)=O)C(=O)O` [Ac-Lys[Oic^2,(α-Me)Phe^5,D-βNal^7,Ile^8]desArg^9BK] (Ac-KR[Oic]PG[αMeF]S[d2Nal]I-OH), for which the metabolised at 1 h, 200 µM (on aminopeptidase M (AmM); in data set [1]) was 0% throughout.
For the compound `CC[C@H](C)[C@H](NC(=O)[C@@H](Cc1ccc2ccccc2c1)NC(=O)[C@H](CO)NC(=O)[C@](C)(Cc1ccccc1)NC(=O)CNC(=O)[C@@H]1CCCN1C(=O)[C@@H]1C[C@@H]2CCCC[C@@H]2N1C(=O)[C@H](CCCNC(=N)N)NC(=O)[C@H](CCCN)NC(C)=O)C(=O)O` [compound c, Ac-Orn[Oic^2,(α-Me)Phe^5,D-βNal^7,Ile^8]desArg^9BK] (Ac-[Orn]R[Oic]PG[αMeF]S[d2Nal]I-OH), the metabolised at 1 h, 200 µM (on aminopeptidase M (AmM); in data set [1]) was 0% each time. The compound also displayed a half-life in data set [2] of more than 120 min.

For the origin of these results see patent US7211566B2 (Universite De Sherbrooke, priority 2003, dated 2007).
